Laboratory results reported in patent publication US11434242B2, “Dopamine-b-hydroxylase inhibitors” (BIAL-PORTELA & Cª, S.A., priority 2017, dated 2022).

Biological target: T1, Dopamine beta hydroxylase (Homo sapiens, UniProt P09172)
T1 construct: 125 μl of plasma; tissue Instituto Português do Sangue Transplantação; host or cells: human plasma from healthy donors
T1 sequence (P09172 40-617 limits assumed): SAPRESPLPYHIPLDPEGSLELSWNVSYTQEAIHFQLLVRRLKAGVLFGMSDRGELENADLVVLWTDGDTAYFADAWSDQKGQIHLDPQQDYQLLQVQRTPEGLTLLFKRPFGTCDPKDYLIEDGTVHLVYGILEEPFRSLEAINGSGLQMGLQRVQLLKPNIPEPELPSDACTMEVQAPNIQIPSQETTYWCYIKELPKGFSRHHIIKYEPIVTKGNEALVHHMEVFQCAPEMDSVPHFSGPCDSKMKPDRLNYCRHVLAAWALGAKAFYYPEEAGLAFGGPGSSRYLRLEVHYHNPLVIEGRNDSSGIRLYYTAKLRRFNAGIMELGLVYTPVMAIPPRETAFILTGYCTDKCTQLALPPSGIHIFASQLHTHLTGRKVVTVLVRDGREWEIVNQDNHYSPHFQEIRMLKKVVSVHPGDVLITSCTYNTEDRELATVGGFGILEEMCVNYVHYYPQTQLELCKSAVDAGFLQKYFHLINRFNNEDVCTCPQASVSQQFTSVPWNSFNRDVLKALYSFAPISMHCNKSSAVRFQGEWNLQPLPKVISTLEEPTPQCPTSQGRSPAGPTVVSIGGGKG
Assay: Dopamine beta hydroxylase activity in human plasma
Assay type: biochemical
Conditions: for Plasma (0.01 μM), activity in % of control: inhibitor 0.01 μM; for Plasma (0.1 μM), activity in % of control: inhibitor 0.1 μM; for Plasma (1 μM), activity in % of control: inhibitor 1 μM
Description: Furthermore, the ability of a compound to inhibit DβH activity may be assessed in human plasma using the following assay. […]. Dopamine beta hydroxylase activity in human plasma was measured by the method of Nagatsu and Udenfriend (Nagatsu, T. and Udenfriend, S. “Photometric assay of dopamine-μ-hydroxylase activity in human blood.” Clin. Chem. 18(9) 980-983, 1972) with minor modifications. Catalase, N-ethylmaleimide, tyramine, disodium fumarate, pargyline, sodium acetate, ascorbic acid, copper sulfate and octopamine were obtained from Sigma Chemical Co., St. Louis, Mo. 63178. Human plasma samples were obtained from healthy donors (Instituto Português do Sangue Transplantação, Centro Sangue Transplantação, Porto, Portugal). From date of collection, plasma was stored at −80° C. until use. Test compounds were initially prepared in dimethyl sulfoxide at a concentration of 10 mM and diluted in dimethyl sulfoxide to the required concentrations. Test compounds were further diluted in ultrapure water to a concentration 20-fold to that of the final concentration to be tested. Final concentrations of test compounds were 10, 100 and 1000 nM. The various reagents used to make up the incubation buffer were premixed and consisted of the following components: sodium acetate buffer (1 M, pH 5.0, 18 ml), sodium fumarate (0.2 M, 4.5 ml), ascorbic acid (0.2 M, 4.5 ml, freshly prepared), pargyline (20 mM, freshly prepared, 4.5 ml), N-ethylmaleimide (0.2 M, 4.5 ml), catalase (10 000 U/ml, 9 ml), copper sulfate (20 μM, 4.5 ml) and 4.5 ultrapure water. The standard incubation mixture (total volume, 950 μl) contained: 50 μL of compound or vehicle (dimethyl sulfoxide 2%); 700 μL of incubation buffer; 125 μl of plasma (or saline for blank reaction or standard curve); 75 μl of saline. The reaction mixture was placed in water bath, shaking at 37° C. and pre-incubated for 10 minutes. Tyramine (0.5 M) was added and incubation proceeded for 45 minutes. The reaction contents were exposed to air. A sample of enzyme preparation (with 125 μl of plasma) that had been added perchloric acid 2 M at the end of the pre-incubation period was used as blank. A blank for each of the tested compounds was used. For octopamine standard curve, perchloric acid 2 M was replaced by increasing concentrations of octopamine prepared in perchloric acid 2 M (0.5, 1, 2.5, 5, 7.5, 10, 15, 20 μg/ml, final concentration). The incubation was stopped by adding 200 μl of 2 M molar perchloric acid, and the mixture was centrifuged at 9000 g for 5 min. The supernatant fluid (800 μL) was transferred to a column (SPE cartridge ISOLUTE SCX-3, 100 mg) and centrifuged at 150 g for 2 min. The column was washed two more times with 0.5 ml of ultrapure water by centrifuging at 150 g for 2 min. The adsorbed octopamine was eluted twice with 0.3 ml of 4 M ammonium hydroxide by centrifuging at 150 g for 2 min. Octopamine in the eluate was then converted to p-hydroxybenzaldehyde by adding 200 μl of sodium periodate (2%) and incubating for 6 min. Excess periodate was than reduced by adding 200 μl of sodium metabisulfite (10%). Absorbance was measured at […] in a 96-well plate by use of a SpectraMAX plus 384 (Molecular Devices) with software SOFTmax® PRO Software 5.3 spectrophotometer. Absorbance was linear with octopamine concentration from 0.5 to 20 μg/ml. Dopamine beta hydroxylase activity is determined as nmol of octopamine formed/ml of plasma/hour and effect of compounds is presented as % control.
Results are reported in the table below as activity in % of control at the inhibitor concentration tested.

| Structure (SMILES) | Plasma (0.01 μM), activity in % of control | Plasma (0.1 μM), activity in % of control | Plasma (1 μM), activity in % of control |
| --- | --- | --- | --- |
| O=C(Cc1[nH]c(=S)n2c1C[C@H](c1c(F)c(F)cc(F)c1F)C2)N[C@H]1CC[C@H](O)CC1 [Example 28, N-((1r,4R)-4-hydroxycyclohexyl)-2-((R)-6-(2,3,5,6-tetrafluorophenyl)-3-thioxo-2,5,6,7-tetrahydro-3H-pyrrolo[1,2-c]imidazol-1-yl)acetamide] | 78.1 % of control | 33.8 % of control | – |
| O=C(Cc1[nH]c(=S)n2c1C[C@H](c1c(F)c(F)cc(F)c1F)C2)NC1CCCCC1O (stereo partly drawn) [Example 29, N-(2-hydroxycyclohexyl)-2-((R)-6-(2,3,5,6-tetrafluorophenyl)-3-thioxo-2,5,6,7-tetrahydro-3H-pyrrolo[1,2-c]imidazol-1-yl)acetamide] | 72.5 % of control | 29.1 % of control | – |
| CN(C)C(=O)Cc1[nH]c(=S)n2c1C[C@H](c1c(F)c(F)cc(F)c1F)C2 [Example 30, (R)—N,N-dimethyl-2-(6-(2,3,5,6-tetrafluorophenyl)-3-thioxo-2,5,6,7-tetrahydro-3H-pyrrolo[1,2-c]imidazol-1-yl)acetamide] | 92.0 % of control | 73.2 % of control | – |
| N[C@@H](CNC(=O)Cc1[nH]c(=S)n2c1C[C@H](c1c(F)c(F)cc(F)c1F)C2)C(=O)O [Example 31, (S)-2-amino-3-(2-((R)-6-(2,3,5,6-tetrafluorophenyl)-3-thioxo-3,5,6,7-tetrahydro-2H-pyrrolo[1,2-c]imidazol-1-yl)acetamido)propanoic acid] | – | 67.7 % of control | 16.7 % of control |
| O=C(Cc1[nH]c(=S)n2c1C[C@H](c1c(F)c(F)cc(F)c1F)C2)NC1CCCC1 [Example 32] | – | 46.2 % of control | 9.7 % of control |
| O=C(Cc1[nH]c(=S)n2c1C[C@@H](c1c(F)ccc(Br)c1F)C2)NC1CCCC1=O (stereo partly drawn) [Example 34, 2-((S)-6-(3-bromo-2,6-difluorophenyl)-3-thioxo-3,5,6,7-tetrahydro-2H-pyrrolo[1,2-c]imidazol-1-yl)-N-(2-oxocyclopentyl)acetamide] | – | 10.4 % of control | 0 % of control |
| CCOC(=O)Cc1[nH]c(=S)n2c1C[C@@H](c1c(F)ccc(Br)c1F)C2 [Example 59, ethyl (S)-2-(6-(3-bromo-2,6-difluorophenyl)-3-thioxo-2,5,6,7-tetrahydro-3H-pyrrolo[1,2-c]imidazol-1-yl)acetate] | – | 20.8 % of control | 4.1 % of control |
| CCOC(=O)Cc1[nH]c(=S)n2c1C[C@H](c1c(F)ccc(Br)c1F)C2 [Example 60, Ethyl (R)-2-(6-(3-bromo-2,6-difluorophenyl)-3-thioxo-2,5,6,7-tetrahydro-3H-pyrrolo[1,2-c]imidazol-1-yl)acetate] | – | 68.9 % of control | 14.0 % of control |
| CCOC(=O)Cc1[nH]c(=S)n2c1C[C@H](c1cc(F)ccc1F)C2 [Example 61, Ethyl (R)-2-(6-(2,5-difluorophenyl)-3-thioxo-2,5,6,7-tetrahydro-3H-pyrrolo[1,2-c]imidazol-1-yl)acetate] | – | 99.1 % of control | 47.9 % of control |
| CCOC(=O)Cc1[nH]c(=S)n2c1C[C@@H](c1cc(Br)ccc1F)C2 [Example 62, Ethyl (S)-2-(6-(5-bromo-2-fluorophenyl)-3-thioxo-2,5,6,7-tetrahydro-3H-pyrrolo[1,2-c]imidazol-1-yl)acetate] | – | 66.4 % of control | 10.9 % of control |
| CCOC(=O)Cc1[nH]c(=S)n2c1C[C@H](c1c(F)c(F)cc(F)c1F)C2 [Example 63, Ethyl (R)-2-(6-(2,3,5,6-tetrafluorophenyl)-3-thioxo-2,5,6,7-tetrahydro-3H-pyrrolo[1,2-c]imidazol-1-yl)acetate] | – | 58.3 % of control | 11.9 % of control |
| CCOC(=O)Cc1[nH]c(=S)n2c1C[C@H](c1cc(Cl)ccc1F)C2 [Example 64, Ethyl (R)-2-(6-(5-chloro-2-fluorophenyl)-3-thioxo-2,5,6,7-tetrahydro-3H-pyrrolo[1,2-c]imidazol-1-yl)acetate] | – | 88.4 % of control | 47.2 % of control |
| CCOC(=O)Cc1[nH]c(=S)n2c1C[C@H](c1c(F)cccc1F)C2 [Example 65, Ethyl (R)-2-(6-(2,6-difluorophenyl)-3-thioxo-2,5,6,7-tetrahydro-3H-pyrrolo[1,2-c]imidazol-1-yl)acetate] | – | 64.5 % of control | 12.6 % of control |
| CC(C)NC(=O)Cc1[nH]c(=S)n2c1[C@@H]1C[C@]1(c1cc(Cl)ccc1F)C2 [Example 67, 2-((5aS,6aR)-5a-(5-chloro-2-fluorophenyl)-3-thioxo-2,3,5,5a,6,6a-hexahydrocyclopropa[3,4]pyrrolo[1,2-c]imidazol-1-yl)-N-isopropylacetamide] | – | 76.1 % of control | 13.2 % of control |
| CNC(=O)Cc1[nH]c(=S)n2c1[C@@H]1C[C@]1(c1cc(F)cc(Cl)c1)C2 [Example 68, 2-((5aS,6aR)-5a-(3-chloro-5-fluorophenyl)-3-thioxo-2,3,5,5a,6,6a-hexahydrocyclopropa[3,4]pyrrolo[1,2-c]imidazol-1-yl)-N-methylacetamide] | – | 55.6 % of control | 13.5 % of control |
| CN(C)C(=O)Cc1[nH]c(=S)n2c1[C@@H]1C[C@]1(c1cc(F)cc(Cl)c1)C2 [Example 69, 2-((5aS,6aR)-5a-(3-chloro-5-fluorophenyl)-3-thioxo-2,3,5,5a,6,6a-hexahydrocyclopropa[3,4]pyrrolo[1,2-c]imidazol-1-yl)-N,N-dimethylacetamide] | – | 82.1 % of control | 24.1 % of control |
| O=C(Cc1[nH]c(=S)n2c1[C@@H]1C[C@]1(c1cc(Br)ccc1F)C2)N1CCCC1 [Example 70, 2-((5aS,6aR)-5a-(5-bromo-2-fluorophenyl)-3-thioxo-2,3,5,5a,6,6a-hexahydrocyclopropa[3,4]pyrrolo[1,2-c]imidazol-1-yl)-1-(pyrrolidin-1-yl)ethan-1-one] | – | 36.6 % of control | 2.9 % of control |
